ChEMBL document CHEMBL1201862, “PubChem BioAssay data set” (2004)
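All cell lines were grown in 96-well plates and treated with compound for 48 hours. GI50 is the concentration that inhibits growth by half.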 Calls of active or inactive are those of the source. Cut-off read from the data, not from the text of the source: active = GI50 up to about 1.1 µM and inactive = higher.

Assays:
Assay in all cases: NCI anticancer screen, dose series, 48 h
SNB-75 = test system: SNB-75
Malme-3M = test system: Malme-3M
OVCAR-4 = test system: OVCAR-4
OVCAR-5 = test system: OVCAR-5
A498 = test system: A498
OVCAR-3 = test system: OVCAR-3
HCT-116 = test system: HCT-116
SNB-19 = test system: SNB-19
HCT-15 = test system: HCT-15
OVCAR-8 = test system: OVCAR-8
HOP-62 = test system: HOP-62
ACHN = test system: ACHN
SF-539 = test system: SF-539
UO-31 = test system: UO-31
RPMI-8226 = test system: RPMI-8226
HOP-92 = test system: HOP-92
HCC 2998 = test system: HCC 2998

| SMILES | GI50 (SNB-75) | GI50 (Malme-3M) | GI50 (OVCAR-4) | GI50 (OVCAR-5) | GI50 (A498) | GI50 (OVCAR-3) | GI50 (HCT-116) | GI50 (SNB-19) | GI50 (HCT-15) | GI50 (OVCAR-8) | GI50 (HOP-62) | GI50 (ACHN) | GI50 (SF-539) | GI50 (UO-31) | GI50 (RPMI-8226) | GI50 (HOP-92) | GI50 (HCC 2998) |
| --- | --- | --- | --- | --- | --- | --- | --- | --- | --- | --- | --- | --- | --- | --- | --- | --- | --- |
| CCCCN(C)CC(C(C)=O)C(c1ccccc1)c1c(O)c2ccccc2oc1=O (stereo not drawn) | 65.2 µM (inactive) | > 100 µM (inactive) | > 100 µM (inactive) | > 100 µM (inactive) | > 100 µM (inactive) | > 100 µM (inactive) | > 100 µM (inactive) | > 100 µM (inactive) | > 100 µM | > 100 µM (inactive) | > 100 µM (inactive) | > 100 µM (inactive) | > 100 µM (inactive) | > 100 µM (inactive) | > 100 µM (inactive) |  |  |
| CC(C)C(Sc1nc(-c2ccccc2)c(-c2ccccc2)[nH]1)C(=O)N/N=C/c1ccc([N+](=O)[O-])cc1 (stereo not drawn) | 18.8 µM (inactive) | 13.9 µM (inactive) | 16 µM (inactive) | 20.1 µM (inactive) | 20.5 µM (inactive) | 7.19 µM (inactive) | 14.5 µM (inactive) | 17.3 µM (inactive) | 12.5 µM | 29.1 µM (inactive) | 20.8 µM (inactive) | 15.6 µM (inactive) | 20.5 µM (inactive) | 11.3 µM (inactive) | 11.5 µM (inactive) | 10.4 µM (inactive) |  |
| COc1cc(CC(C(=O)O)C(=O)O)c(OC)cc1CC(C(=O)O)C(=O)O | > 100 µM (inactive) | > 100 µM (inactive) | > 100 µM (inactive) | > 100 µM (inactive) | > 100 µM (inactive) | > 100 µM (inactive) | > 100 µM (inactive) | > 100 µM (inactive) | > 100 µM | > 100 µM (inactive) | > 100 µM (inactive) |  | > 100 µM (inactive) | > 100 µM (inactive) | > 100 µM (inactive) | > 100 µM (inactive) |  |
| COc1ccc(N/N=C(\CCN(C)C)c2ccccc2)cc1 | 8.04 µM (inactive) | 11.7 µM (inactive) | 4.67 µM (inactive) | 9.57 µM (inactive) | 14.9 µM (inactive) | 2.81 µM (inactive) | 3.56 µM (inactive) | 3.01 µM (inactive) | 1.15 µM | 12.8 µM (inactive) | 2.1 µM (inactive) | 1.36 µM (inactive) | 1.68 µM (inactive) | 1.37 µM (inactive) | 2.39 µM (inactive) |  |  |
| Cc1nc2c(ccc3ncccc32)[nH]1 | > 100 µM (inactive) | > 100 µM (inactive) | > 100 µM (inactive) | > 100 µM (inactive) |  | > 100 µM (inactive) |  | > 100 µM (inactive) | > 100 µM | > 100 µM (inactive) | > 100 µM (inactive) | > 100 µM (inactive) | > 100 µM (inactive) | > 100 µM (inactive) | > 100 µM (inactive) | > 100 µM (inactive) | > 100 µM (inactive) |
| COc1cc(C2c3cc4c(cc3[C@@H](OCCN(C)C)C3COC(=O)[C@H]23)OCO4)cc(OC)c1O (stereo partly drawn) | 0.769 µM (active) | 0.388 µM (active) | 2.07 µM (inactive) | 0.771 µM (active) | 0.167 µM (active) | 1.76 µM (inactive) | 1.04 µM (active) | 0.207 µM (active) | 0.971 µM | 0.583 µM (active) | 0.045 µM (active) | 0.1 µM (active) | 0.164 µM (active) | 0.519 µM (active) | 0.0472 µM (active) | 0.196 µM (active) |  |
| CC(C)(C)c1cc(COc2c3sc(=S)sc3c(OCc3cc(C(C)(C)C)cc(C(C)(C)C)c3)c3sc(=S)sc23)cc(C(C)(C)C)c1 | > 100 µM (inactive) |  | > 100 µM (inactive) |  | > 100 µM (inactive) | > 100 µM (inactive) | > 100 µM (inactive) | > 100 µM (inactive) | > 100 µM | > 100 µM (inactive) | > 100 µM (inactive) | > 100 µM (inactive) | > 100 µM (inactive) |  | > 100 µM (inactive) |  | > 100 µM (inactive) |
| COc1ccc2nc(NC(=O)C(=O)NNC(=O)c3ccncc3)sc2c1 | > 100 µM (inactive) | > 100 µM (inactive) | > 100 µM (inactive) |  | > 100 µM (inactive) | > 100 µM (inactive) | > 100 µM (inactive) | > 100 µM (inactive) | > 100 µM | > 100 µM (inactive) | > 100 µM (inactive) | > 100 µM (inactive) | > 100 µM (inactive) | > 100 µM (inactive) |  | > 100 µM (inactive) | > 100 µM (inactive) |
| O=C1OC(c2ccccc2)=N/C1=C/C=C/c1ccco1 |  | > 100 µM (inactive) | > 100 µM (inactive) | > 100 µM (inactive) |  | > 100 µM (inactive) |  | > 100 µM (inactive) | > 100 µM | > 100 µM (inactive) |  | > 100 µM (inactive) | > 100 µM (inactive) | > 100 µM (inactive) |  | > 100 µM (inactive) | > 100 µM (inactive) |
| O=C1c2c(nc3ccccc3c2-c2ccccc2)CN1Nc1ccccc1 |  | > 100 µM (inactive) | > 100 µM (inactive) | > 100 µM (inactive) |  | > 100 µM (inactive) | > 100 µM (inactive) |  |  | > 100 µM (inactive) | 53.8 µM (inactive) |  |  | > 100 µM (inactive) | > 100 µM (inactive) | > 100 µM (inactive) | > 100 µM (inactive) |
| O=C1c2ccccc2NC1(c1ccccc1)c1c(-c2ccccc2)[nH]c2ccccc12 (stereo not drawn) | 24.7 µM (inactive) |  | 8.99 µM (inactive) |  | 32.8 µM (inactive) | 21.2 µM (inactive) | 7.28 µM (inactive) | 37.3 µM (inactive) | 13.4 µM | 24.9 µM (inactive) | 67.5 µM (inactive) | 9.25 µM (inactive) | > 100 µM (inactive) | 7.82 µM (inactive) | 3.88 µM (inactive) | 5.35 µM (inactive) | 36.6 µM (inactive) |
| CCCCCCCCCc1cc(=O)c2ccc(O)cc2o1 | 17.2 µM (inactive) | > 100 µM (inactive) | 22.3 µM (inactive) | > 100 µM (inactive) |  | 9.38 µM (inactive) | 38.5 µM (inactive) | 44.6 µM (inactive) |  | 27.1 µM (inactive) | > 100 µM (inactive) | 42.2 µM (inactive) | 44.4 µM (inactive) | 8.85 µM (inactive) | 17.9 µM (inactive) | 16.4 µM (inactive) |  |
| c1ccc2c(c1)C1CCCCCC21N1CCOCC1 (stereo not drawn) | 34.8 µM (inactive) |  | 91 µM (inactive) | > 100 µM (inactive) | > 100 µM (inactive) | 20.6 µM (inactive) | 54.2 µM (inactive) | 29.7 µM (inactive) | 52 µM | > 100 µM (inactive) | > 100 µM (inactive) | > 100 µM (inactive) | > 100 µM (inactive) | > 100 µM (inactive) |  |  | > 100 µM (inactive) |
| CCOC(=O)C(=O)Nc1ccc(Cl)c(C(F)(F)F)c1 | > 100 µM (inactive) | > 100 µM (inactive) | > 100 µM (inactive) | > 100 µM (inactive) |  | > 100 µM (inactive) | > 100 µM (inactive) | > 100 µM (inactive) | > 100 µM | > 100 µM (inactive) | > 100 µM (inactive) | > 100 µM (inactive) | > 100 µM (inactive) | > 100 µM (inactive) | > 100 µM (inactive) | < 0.01 µM (active) | > 100 µM (inactive) |
| CC(C)=CC(C(O)c1ccccc1)S(=O)(=O)c1nccn1C (stereo not drawn) | > 100 µM (inactive) | > 100 µM (inactive) | > 100 µM (inactive) | > 100 µM (inactive) |  | > 100 µM (inactive) | > 100 µM (inactive) | > 100 µM (inactive) | > 100 µM | > 100 µM (inactive) | > 100 µM (inactive) | > 100 µM (inactive) | > 100 µM (inactive) | > 100 µM (inactive) | > 100 µM (inactive) | > 100 µM (inactive) | > 100 µM (inactive) |
| COC12CCC(=O)C=C1c1ccccc1N2C(C)=O (stereo not drawn) | > 100 µM (inactive) |  | > 100 µM (inactive) |  | > 100 µM (inactive) | > 100 µM (inactive) | > 100 µM (inactive) | > 100 µM (inactive) | > 100 µM | > 100 µM (inactive) | > 100 µM (inactive) | > 100 µM (inactive) | > 100 µM (inactive) | > 100 µM (inactive) | > 100 µM (inactive) | < 0.01 µM (active) | > 100 µM (inactive) |
| CC1CC2(CC[C@@H]1O)OCCO2 (stereo partly drawn) |  | > 100 µM (inactive) | > 100 µM (inactive) |  | > 100 µM (inactive) | > 100 µM (inactive) | > 100 µM (inactive) | > 100 µM (inactive) | > 100 µM | > 100 µM (inactive) | > 100 µM (inactive) |  | > 100 µM (inactive) | > 100 µM (inactive) | > 100 µM (inactive) | > 100 µM (inactive) | > 100 µM (inactive) |
| O=C1C(O)=C(CN(CCCl)CCCl)C(=O)c2ccccc21 | 73.6 µM (inactive) | 53.5 µM (inactive) | > 100 µM (inactive) | 76.9 µM (inactive) | > 100 µM (inactive) | 45.1 µM (inactive) | 34.4 µM (inactive) | 50 µM (inactive) | 31 µM | 76.9 µM (inactive) | > 100 µM (inactive) | 35.2 µM (inactive) | 34 µM (inactive) | 37.4 µM (inactive) |  | 56.5 µM (inactive) | 97.5 µM (inactive) |
| CC(C)N1C(C)[C@@H](c2ccccc2)O[P@@]1(=O)CC1=CCCCC1 (stereo partly drawn) | > 100 µM (inactive) | > 100 µM (inactive) |  | > 100 µM (inactive) | > 100 µM (inactive) | 79.3 µM (inactive) | 90.2 µM (inactive) |  | > 100 µM | > 100 µM (inactive) | > 100 µM (inactive) | > 100 µM (inactive) | > 100 µM (inactive) | > 100 µM (inactive) | 49.1 µM (inactive) | 45.8 µM (inactive) | > 100 µM (inactive) |
